IC50 data for eleven molecules are collected here from patent publication US20240025884A1 (Dong-A ST Co., Ltd., priority 2022, published 2024).

By IC50 is commonly meant the concentration at which inhibition is half-maximal.

Chain of GCN2 (Q9P2K8 whole entry): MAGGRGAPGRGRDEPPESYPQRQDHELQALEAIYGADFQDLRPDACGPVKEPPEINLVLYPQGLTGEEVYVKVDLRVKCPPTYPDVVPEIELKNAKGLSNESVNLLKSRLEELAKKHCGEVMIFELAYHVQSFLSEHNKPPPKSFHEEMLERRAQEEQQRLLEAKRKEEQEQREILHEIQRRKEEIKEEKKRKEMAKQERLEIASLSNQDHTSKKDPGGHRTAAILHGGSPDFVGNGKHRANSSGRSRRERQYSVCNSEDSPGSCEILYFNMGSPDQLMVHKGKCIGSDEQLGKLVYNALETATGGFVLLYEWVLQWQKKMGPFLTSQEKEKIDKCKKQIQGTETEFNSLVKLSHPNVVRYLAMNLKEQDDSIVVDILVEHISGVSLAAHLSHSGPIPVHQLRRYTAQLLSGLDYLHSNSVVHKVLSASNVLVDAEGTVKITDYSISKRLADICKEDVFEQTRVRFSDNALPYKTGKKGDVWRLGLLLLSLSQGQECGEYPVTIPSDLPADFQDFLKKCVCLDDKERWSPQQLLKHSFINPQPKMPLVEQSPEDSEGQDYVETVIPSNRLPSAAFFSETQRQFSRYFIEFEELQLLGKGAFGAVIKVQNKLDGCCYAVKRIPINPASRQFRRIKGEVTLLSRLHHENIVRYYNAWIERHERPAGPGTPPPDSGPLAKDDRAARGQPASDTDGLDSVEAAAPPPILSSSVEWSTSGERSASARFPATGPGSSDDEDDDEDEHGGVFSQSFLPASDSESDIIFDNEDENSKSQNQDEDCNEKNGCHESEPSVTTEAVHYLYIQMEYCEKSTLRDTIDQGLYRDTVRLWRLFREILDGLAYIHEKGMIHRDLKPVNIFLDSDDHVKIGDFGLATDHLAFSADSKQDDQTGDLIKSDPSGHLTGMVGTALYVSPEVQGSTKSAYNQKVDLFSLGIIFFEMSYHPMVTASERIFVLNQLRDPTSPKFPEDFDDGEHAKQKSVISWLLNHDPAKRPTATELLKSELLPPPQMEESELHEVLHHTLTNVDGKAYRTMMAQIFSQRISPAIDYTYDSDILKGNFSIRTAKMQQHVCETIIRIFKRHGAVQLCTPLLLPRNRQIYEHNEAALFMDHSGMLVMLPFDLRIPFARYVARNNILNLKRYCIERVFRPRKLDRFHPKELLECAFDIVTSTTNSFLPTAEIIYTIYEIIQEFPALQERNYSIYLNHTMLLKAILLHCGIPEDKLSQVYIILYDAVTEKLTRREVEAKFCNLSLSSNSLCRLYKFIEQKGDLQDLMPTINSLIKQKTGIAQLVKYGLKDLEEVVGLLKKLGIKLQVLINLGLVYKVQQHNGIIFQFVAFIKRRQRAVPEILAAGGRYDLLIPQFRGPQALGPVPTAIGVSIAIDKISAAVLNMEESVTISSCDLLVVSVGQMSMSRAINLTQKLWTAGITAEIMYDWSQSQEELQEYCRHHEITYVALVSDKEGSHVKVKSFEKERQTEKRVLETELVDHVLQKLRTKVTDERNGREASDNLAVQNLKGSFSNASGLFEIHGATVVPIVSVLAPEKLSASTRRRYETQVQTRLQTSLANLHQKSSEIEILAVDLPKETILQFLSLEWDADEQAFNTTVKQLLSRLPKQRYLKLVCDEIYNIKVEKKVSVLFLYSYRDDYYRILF

This test deals with GCN2 (Homo sapiens (Human), UniProt Q9P2K8). Nature of the test: GCN2 Biochemical Assay (TR-FRET, GFP-eIF2S1 substrate phosphorylation). The note with it: read-out: IC50 (GCN2 Inhibitory Activity). A digest of the protocol:
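TR-FRET readout (Ex 340, Em 490/520 nm) after 2–3 h with Tb-labelled phospho-eIF2S1 antibody in stop mix, following a 70 min room-temperature kinase step. Reaction: in-house GCN2, GFP-eIF2S1, ATP, tRNA in Tris pH 7.5 (2× stocks 1.6 nM, 50 nM, 0.2 mM); compounds tested at 10 concentrations, with a phospho-substrate artifact counter-plate.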
As for `Cc1cnccc1-c1ccc(F)c2c1CN(c1cccc3c(-c4nc(Nc5cc(C)n(C)n5)ncc4C)c[nH]c13)C2=O` [Example 487, 2-(3-(2-((1,5-dimethyl-1H-pyrazol-3-yl)amino)-5-methylpyrimidin-4-yl)-1H-indol-7-yl)-7-fluoro-4-(3-methylpyridin-4-yl)isoindolin-1-one], the IC50 was below 0.01 µM.
Take `Cc1cnccc1-c1cccc2c1CN(c1cccc3c(-c4nc(Nc5cc(C)n(C)n5)ncc4C)c[nH]c13)C2=O` [Example 455, 2-(3-(2-((1,5-dimethyl-1H-pyrazol-3-yl)amino)-5-methylpyrimidin-4-yl)-1H-indol-7-yl)-4-(3-methylpyridin-4-yl)isoindolin-1-one]: the IC50 was below 0.01 µM.
`Cc1cnc(Nc2cc(C)n(C)n2)nc1-c1c[nH]c2c(N3Cc4cccc(I)c4C3=O)cccc12` [Example 275, 2-(3-(2-((1,5-dimethyl-1H-pyrazol-3-yl)amino)-5-methylpyrimidin-4-yl)-1H-indol-7-yl)-7-iodoisoindolin-1-one]: the IC50 lay within 0.01 to 0.1 µM.
Take `Cc1cnc(Nc2cc(C)n(C)n2)nc1-c1c[nH]c2c(N3Cc4c(NC(=O)CN(C)C)cccc4C3=O)cccc12` [Example 335, N-(2-(3-(2-((1,5-dimethyl-1H-pyrazol-3-yl)amino)-5-methylpyrimidin-4-yl)-1H-indol-7-yl)-1-oxoisoindolin-4-yl)-2-(dimethylamino)acetamide]: the half-inhibitory concentration (IC50) is below 0.01 µM.
Regarding `Cc1cc(O[C@H]2CCN(CC(=O)Nc3cccc4c(-c5nc(Nc6cc(C)n(C)n6)ncc5C)c[nH]c34)C2)no1` [Example 112, (S)-N-(3-(2-((1,5-dimethyl-1H-pyrazol-3-yl)amino)-5-methylpyrimidin-4-yl)-1H-indol-7-yl)-2-(3-((5-methylisoxazol-3-yl)oxy)pyrrolidin-1-yl)acetamide], the IC50 lay within 0.01 to 0.1 µM.
To `Cc1cnc(Nc2cc(C)n(C)n2)nc1-c1c[nH]c2c(NC(=O)CN3CC[C@H](Oc4cncc(C(N)=O)n4)C3)cccc12` [Example 132, (S)-6-((1-(2-((3-(2-((1,5-dimethyl-1H-pyrazol-3-yl)amino)-5-methylpyrimidin-4-yl)-1H-indol-7-yl)amino)-2-oxoethyl)pyrrolidin-3-yl)oxy)pyrazine-2-carboxamide] belongs below 0.01 µM; to `COCCNc1cc(O[C@H]2CCN(CC(=O)Nc3cccc4c(-c5nc(Nc6cc(C)n(C)n6)ncc5C)c[nH]c34)C2)ncn1` [Example 147, (S)-N-(3-(2-((1,5-dimethyl-1H-pyrazol-3-yl)amino)-5-methylpyrimidin-4-yl)-1H-indol-7-yl)-2-(3-((6-((2-methoxyethyl)amino)pyrimidin-4-yl)oxy)pyrrolidin-1-yl)acetamide], below 0.01 µM.
As to `Cc1cnc(Nc2cc(C)n(C)n2)nc1-c1c[nH]c2c(N3Cc4cccc(Br)c4C3=O)cccc12` [Example 277, 7-bromo-2-(3-(2-((1,5-dimethyl-1H-pyrazol-3-yl)amino)-5-methylpyrimidin-4-yl)-1H-indol-7-yl)isoindolin-1-one], the half-inhibitory concentration (IC50) is 0.01 to 0.1 µM.
The result for `Cc1cnc(Nc2cc(C)n(C)n2)nc1-c1c[nH]c2c(N3Cc4c(NC(=O)C5CCCN(C)C5)cccc4C3=O)cccc12` (centres unmarked) [Example 307, N-(2-(3-(2-((1,5-dimethyl-1H-pyrazol-3-yl)amino)-5-methylpyrimidin-4-yl)-1H-indol-7-yl)-1-oxoisoindolin-4-yl)-1-methylpiperidine-3-carboxamide] reads below 0.01 µM; that for `Cc1cnc(Nc2cc(C)n(C)n2)nc1-c1c[nH]c2c(NC(=O)CN3CC[C@H](Oc4cc(C5=CCC(C)(C)CC5)ncn4)C3)cccc12` [Example 250], 0.1 to 1 µM; that for `Cc1cnc(Nc2cc(C)n(C)n2)nc1-c1c[nH]c2c(NC(=O)CN3CC[C@H](Oc4ccsc4C(=O)O)C3)cccc12` [Example 108, (S)-3-((1-(2-((3-(2-((1,5-dimethyl-1H-pyrazol-3-yl)amino)-5-methylpyrimidin-4-yl)-1H-indol-7-yl)amino)-2-oxoethyl)pyrrolidin-3-yl)oxy)thiophene-2-carboxylic acid], below 0.01 µM.
